The target in the experiment is T1, human TRPM8 (Homo sapiens, UniProt Q7Z2W7).
T1 construct: expressed in transfected cells
Description: Menthol-induced Ca2+ influx in HEK293 cells stably expressing human TRPM8. The format is cell-based. As to conditions: 30 microM menthol, read-out: IC50 against TRPM8. Here is the method: Measurement of the Menthol-Induced Ca^2+ Influx in HEK293 Cells Stably Expressing Human TRPM8
A cell-based Ca^2+ influx assay using HEK293 cells stably expressing human TRPM8 is used to identify the activity of compounds.
HEK293 cells stably expressing human TRPM8 are grown in T175 flasks at 37° C. in a 5% CO2 humidified incubator to about 80% confluence. Media composition consists of Dulbecco's Modified Eagle Medium (high glucose), 10% fetal calf serum (FCS), 100 units/mL Penicillin, 100 microg/mL Streptomycin and 600 microg/mL Geneticine. At 24 hours prior to assay, cells are seeded in poly-D-lysine coated 384-well plates (BD FALCON) at a density of 30,000 cells per well in culture medium and grown overnight in 5% CO2 at 37° C. On the assay day, growth media is removed and cells are loaded with 0.5 microM Fluo4-AM (Molecular Probes) and 0.005% Pluronic F-127 dissolved in assay buffer (Hank's balanced salt solution (HBSS), 19.4 mM HEPES pH 7.4, 2.5 mM Probenecid) for 1 hour at room temperature. After washing with assay buffer, the cells are preincubated with various concentrations of the compounds for 5 min. The changes in intracellular calcium concentration by addition of 30 microM menthol are monitored by the cell imaging technology by Hamamatsu Photonics Functional Drug Screening System (FDSS).
The IC50 values for compounds of the present invention are determined from 11-point dose-response studies. Curves are generated using the average of duplicate wells for each data point. Finally, the IC50 values are calculated with the best-fit dose curve determined by XLfit (ID Business Solutions Ltd.).

Some results are limits rather than exact numbers.

As a reminder, the IC50 is the midpoint of a concentration-inhibition curve.

T1 sequence (Q7Z2W7 whole entry): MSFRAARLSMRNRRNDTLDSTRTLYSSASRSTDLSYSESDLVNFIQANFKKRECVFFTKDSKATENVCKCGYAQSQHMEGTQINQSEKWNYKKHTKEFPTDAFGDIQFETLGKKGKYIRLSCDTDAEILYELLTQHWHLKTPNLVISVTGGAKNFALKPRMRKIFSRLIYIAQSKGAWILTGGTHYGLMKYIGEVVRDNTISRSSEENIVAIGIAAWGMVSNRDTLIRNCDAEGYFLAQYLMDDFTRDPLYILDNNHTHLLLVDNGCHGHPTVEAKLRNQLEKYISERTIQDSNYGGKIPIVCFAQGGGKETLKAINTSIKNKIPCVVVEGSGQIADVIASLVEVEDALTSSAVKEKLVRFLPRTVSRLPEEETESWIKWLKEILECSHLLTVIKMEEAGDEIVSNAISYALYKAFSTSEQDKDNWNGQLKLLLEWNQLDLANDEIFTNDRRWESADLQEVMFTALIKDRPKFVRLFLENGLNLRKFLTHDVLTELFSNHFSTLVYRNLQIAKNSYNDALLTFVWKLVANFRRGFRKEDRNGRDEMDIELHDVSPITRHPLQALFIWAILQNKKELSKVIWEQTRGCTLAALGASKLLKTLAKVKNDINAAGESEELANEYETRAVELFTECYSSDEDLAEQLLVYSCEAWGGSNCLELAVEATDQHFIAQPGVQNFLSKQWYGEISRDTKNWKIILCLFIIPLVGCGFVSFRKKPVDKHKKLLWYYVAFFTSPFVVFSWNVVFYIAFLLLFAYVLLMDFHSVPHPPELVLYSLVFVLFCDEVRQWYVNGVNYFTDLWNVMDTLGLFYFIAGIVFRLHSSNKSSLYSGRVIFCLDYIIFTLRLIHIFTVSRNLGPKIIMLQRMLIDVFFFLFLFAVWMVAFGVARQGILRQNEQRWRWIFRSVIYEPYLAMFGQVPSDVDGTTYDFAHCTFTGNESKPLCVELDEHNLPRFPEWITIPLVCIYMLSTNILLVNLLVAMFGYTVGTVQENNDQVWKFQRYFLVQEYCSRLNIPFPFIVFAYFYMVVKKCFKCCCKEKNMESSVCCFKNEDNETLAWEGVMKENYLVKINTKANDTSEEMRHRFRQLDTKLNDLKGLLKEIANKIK

For `CCC1=NC2(CCC(F)(F)CC2)C(=O)N1CC(=O)c1ccc(Oc2cccnn2)cc1` [Example 3, 2-ethyl-8,8-difluoro-3-(2-oxo-2-(4-(pyridazin-3-yloxy)phenyl)ethyl)-1,3-diazaspiro[4.5]dec-1-en-4-one], the IC50 was below 50 nM.

Regarding `CC1=NC2(CCC(F)(F)CC2)C(=O)N1CC(=O)c1ccc(-c2nnccc2C)cc1` [Example 4, 8,8-difluoro-2-methyl-3-(2-(4-(4-methylpyridazin-3-yl)phenyl)-2-oxoethyl)-1,3-diazaspiro[4,5]dec-1-en-4-one], the IC50 was below 100 nM. As for `CC1=NC2(CCC(F)(F)CC2)C(=O)N1CC(=O)c1ccc(-n2c(C)nc3ccccc32)cc1` [Example 5, 8,8-difluoro-2-methyl-3-(2-(4-(2-methyl-1H-benzo[d]imidazol-1-yl)phenyl)-2-oxoethyl)-1,3-diazaspiro[4.5]dec-1-en-4-one], the figure is below 50 nM. The value for `CC1=NC2(CCCCC2)C(=O)N1CC(=O)c1ccc(-n2c(C)nc3ccccc32)cc1` [Example 2, 2-methyl-3-(2-(4-(2-methyl-1H-benzo[d]imidazol-1-yl)phenyl)-2-oxoethyl)-1,3-diazaspiro[4.5]dec-1-en-4-one] was below 50 nM.

Turning to `CC1=NC2(CCC(F)(F)CC2)C(=O)N1CC(=O)c1ccc(-n2c(C)nc3cccnc32)cc1` [Example 6, 8,8-difluoro-2-methyl-3-(2-(4-(2-methyl-3H-imidazo[4,5-b]pyridin-3-yl)phenyl)-2-oxoethyl)-1,3-diazaspiro[4.5]dec-1-en-4-one], the IC50 is below 50 nM. The value for `CC1=NC2(CCC(F)(F)CC2)C(=O)N1CC(=O)c1ccc(Oc2cccnn2)cc1` [Example 1] was below 50 nM.

The values above are taken from US20180305341A1 (RAQUALIA PHARMA INC., priority 2015, published 2018).
